Assay results from US20050043314A1, “Substituted alkylaminopyridazinone derivatives, process for the preparation thereof and pharmaceutical composition containing the same” (priority 2001, published 2005).

Columns and labels:
[1] = test system: male Wistar rats; assay: Vogel lick-conflict (drinking conflict) test; format: in vivo, rat; details: intraperitoneally, 30 min prior to test; number of tolerated shocks
Protocol: Experiments were performed in a PC operated system (LIIKOSYS, Experimetria, Hungary) consisted of 8 test chambers (20 cm×20 cm×20 cm Plexiglas boxes) each of which was equipped with a water fountain system mounted at appropriate height on the wall of the chamber and metal grid floor for delivering electric shocks. 160-180 g male Wistar rats (N═8) were deprived of drinking water 48 h and fasted for 24 h prior to test. Test and reference compounds or vehicle were administered intraperitoneally, 30 min prior to test. All procedures were carried out in a quiet, air-conditioned room between 07:30 and 13:00 h at an ambient temperature of 23±2° C. At the beginning of the test the animals were placed in the test chamber where they had free access to drinking water for a 30 s grace period. After that, electric shocks (600 μA, 0.6 s) were applied through the drinking spout following every 20 licks during the 5 min test period (Vogel et al, 1971). Number of punished licks were recorded and stored by an IBM compatible computer. Means±SEM of numbers of tolerated shocks were calculated in each group, statistical analysis of data was performed by one way ANOVA followed by Duncan's test (STATISTICA). Diazepam [7-chloro-1,3-dihydro-1-methyl-5-phenyl-2H-1,4-benzodiazepine-2-one] was used as the reference substance.

[2] = test system: mouse; assay: Inhibition of spontaneous motor activity (Dews instrument); format: in vivo; details: per os, 60 min before test, 30 min recording; sedative effect
Protocol: The effect on spontaneous motor activity was investigated according to Borsy and co-workers [Borsy, J. et al, Arch. Int. Pharmacodyn., 124, 180-190 (1960)] in a ten channel Dews instrument, with 1-1 animal in each channel. Animals were placed into the instrument 60 min after per os treatment with either vehicle or test compound, and interruptions of infrared beams were recorded for 30 min. […] Diazepam was used as the reference substance.

[3] = test system: Male Sprague-Dawley rats; assay: Elevated plus-maze test in rats; format: in vivo, rat; details: 60 min after treatment, minimal effective dose regarding time spent in the open arms
Source text: Test have been performed as described by Pellow and co-workers [J.Neurosci. Methods, 14, 149 (1985)]. A wooden cross, 15 cm wide with 100 cm long arms was used for the experiments. The sides and ends of two opposite arms of the cross were equipped with 40 cm high walls, however, the arms were open to the […] central area (closed arms). The two other opposite arms were not encircled by walls (open arms).
Male Sprague-Dawley rats weighing 200-220 g were used for the experiments. The animals were placed in the central area of the equipment 60 min after treatment and the following four parameters have been observed for the 5 min test time: • time spent in the open arms, • time spent in the closed arms, • number of entries into the open arms, • number of entries into the closed arms.
The effect was expressed as percent increase in either the time (measured in sec) spent in the open arms or number of entries into the open arms. MEDs (minimal effective dose) were determined for each compound regarding the time spent in the open arms
Buspirone [8-{4-[4-(2-pyrimidinyl)-1-piperazinyl]butyl}-8-azaspiro[4,5]decane-7,9-dione] was used as the reference substance.

[4] = test system: male Wistar rats; assay: Effects on blood pressure in conscious, freely moving rats (radiotelemetry); format: in vivo, rat
Source text: A 7 day postoperative recovery period was allowed.
None of the compounds examined reduced blood pressure of the test animals.

Compound: 5-{2-[4-(methoxytrifluoromethylphenyl)-piperazine-1-yl]-ethylamino}-2H-pyridazine-3-one trihydrochloride [Example 1]
- MED in mg/kg ip. [1]: 20.0 mg/kg

Compound: CN1C(=O)CN=C(c2ccccc2)c2cc(Cl)ccc21 [Diazepam, 7-chloro-1,3-dihydro-1-methyl-5-phenyl-2H-1,4-benzodiazepine-2-one, reference compound]
- ID50 in mg/kg po. [2]: 7.0 mg/kg
- MED in mg/kg ip. [1]: 5.0 mg/kg

Compound: O=c1cc(NCCN2CCN(c3ccccc3F)CC2)cn[nH]1 [Example 2, 5-{2-[4-(2-fluorophenyl)piperazine-1-yl]ethyl-amino}-2H-pyridazine-3-one]
- ID50 in mg/kg po. [2]: 21.0 mg/kg
- melting point: 103 to 105 °C
- MED in mg/kg ip. [1]: 20.0 mg/kg

Compound: O=c1cc(NCCN2CCN(c3ccccc3)CC2)cn[nH]1 [Example 3, 5-{2-[4phenylpiperazine-1-yl]ethylamino}2H-pyridazine-3-one]
- MED in mg/kg po. [3]: 0.1 mg/kg
- ID50 in mg/kg po. [2]: 60.0 mg/kg
- melting point: 147 to 149 °C
- MED in mg/kg ip. [1]: 5.0 mg/kg

Compound: O=c1cc(NCCN2CCN(c3ccccn3)CC2)cn[nH]1 [Example 4, 5-[2-(4-pyridin-2-ylpiperazine-;1-yl)ethylamino]-2H-pyridazine-3-one]
- MED in mg/kg ip. [1]: 10.0 mg/kg

Compound: O=c1cc(NCCN2CCN(c3ncccn3)CC2)cn[nH]1 [Example 5, 5-[2-(4-pyrimidin-2-ylpiperazine-1-yl)ethylamino]-2H-pyridazine-3-one]
- ID50 in mg/kg po. [2]: >100.0 mg/kg
- melting point: 199 to 201 °C
- MED in mg/kg ip. [1]: 20.0 mg/kg

Compound: O=c1cc(NCCN2CCN(c3ccc(F)cc3)CC2)cn[nH]1 [Example 7, 5-{2-[4-(4-fluorophenyl)piperazine-1-yl]ethyl-amino]-2H-pyridazine-3-one]
- Results of statistical evaluation ([4]; blood pressure compared to placebo, N.S. = Not significant statistically, two-way ANOVA with Scheffe's post hoc test): N.S.
- Mean blood pressure after treatment with test compound, Mean ([4]; mean arterial blood pressure for 6 hours after oral treatment, conscious rats): 92.7 mmHg
- melting point: 96 to 98 °C
- MED in mg/kg ip. [1]: 20.0 mg/kg
